Results as given in PubChem BioAssay AID256 (DTP/NCI, 2004).
Values joined by “and” are separate entries in the source; they are usually repeats but may differ in a detail not shown here. Equal values may be shown once. Toxic doses and inconclusive results are not listed.

Tested on: CD2F1 mice, L1210 leukemia ip, survival T/C
Experiment: NCI In Vivo Anticancer Drug Screen. Data for tumor model L1210 Leukemia (intraperitoneal) in CD2F1 (CDF1) mice
Details: endpoint: mean survival time, higher = longer survival
In short: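 Ratio T/C, where T is the treated-group value and C the vehicle-dosed control value, from mice implanted with a transplantable tumor.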

[1] = dose: 25.0 mg/kg/injection, schedule: Q01DX009 (ip), vehicle: saline
[2] = dose: 75.0 mg/kg/injection, schedule: Q01DX001 (ip), vehicle: saline
[3] = dose: 150.0 mg/kg/injection, schedule: Q01DX001 (ip), vehicle: saline

Q: For CN(C)CCCN1c2ccccc2Sc2ccc(C(F)(F)F)cc21, which T/C (dose: 12.5 mg/kg/injection, schedule: Q01DX009 (ip), vehicle: saline) is on record?
A: 106 % of control

Q: And the T/C (dose: 12.5 mg/kg/injection, schedule: Q04DX003 (ip), vehicle: saline)?
A: 100 % of control

Q: And the T/C (dose: 16.5 mg/kg/injection, schedule: Q01DX009 (ip), vehicle: saline with Tween-80)?
A: 103 % of control

Q: And the T/C (dose: 25.0 mg/kg/injection, schedule: Q01DX001 (ip), vehicle: saline)?
A: 100 % of control

Q: And the T/C (dose: 25.0 mg/kg/injection, schedule: Q01DX009 (ip), vehicle: saline with Tween-80)?
A: 88 % of control

Q: What about the T/C [1] of the same compound?
A: 120 % of control

Q: What about the T/C (dose: 25.0 mg/kg/injection, schedule: Q04DX003 (ip), vehicle: saline) of the same compound?
A: 115 % of control

Q: What about the T/C (dose: 37.5 mg/kg/injection, schedule: Q01DX009 (ip), vehicle: saline with Tween-80) of the same compound?
A: 94 % of control

Q: What about the T/C (dose: 50.0 mg/kg/injection, schedule: Q01DX001 (ip), vehicle: saline) of the same compound?
A: 104 % of control

Q: And the T/C (dose: 50.0 mg/kg/injection, schedule: Q04DX003 (ip), vehicle: saline)?
A: 118 % of control

Q: COc1ccc(C(C)C(OC(=O)c2ccc([N+](=O)[O-])cc2)c2ccccc2)cc1 (stereo not drawn) was tested. Which T/C (dose: 100.0 mg/kg/injection, schedule: Q01DX009 (ip), vehicle: saline with Tween-80) did it give?
A: 94 % of control

Q: And the T/C (dose: 100.0 mg/kg/injection, schedule: Q04DX003 (ip), vehicle: saline with Tween-80)?
A: 88 % of control

Q: And the T/C (dose: 200.0 mg/kg/injection, schedule: Q01DX009 (ip), vehicle: saline with Tween-80)?
A: 88 % of control

Q: What about the T/C (dose: 200.0 mg/kg/injection, schedule: Q04DX003 (ip), vehicle: saline with Tween-80) of the same compound?
A: 97 % of control

Q: And the T/C (dose: 400.0 mg/kg/injection, schedule: Q01DX009 (ip), vehicle: saline with Tween-80)?
A: 103 % of control

Q: And the T/C (dose: 400.0 mg/kg/injection, schedule: Q04DX003 (ip), vehicle: saline with Tween-80)?
A: 94 % of control

Q: What does the source list for CCOC(=O)c1c(-c2ccccc2)csc1NS(=O)(=O)c1ccc(C)cc1?
A: T/C [2]: 96 % of control; T/C [3]: 90 % of control; T/C (dose: 300.0 mg/kg/injection, schedule: Q01DX001 (ip), vehicle: saline): 101 % of control

Q: With O=C(O)c1ccc(Nc2c3ccccc3nc3ccccc23)cc1 as the compound, how does the T/C (dose: 44.0 mg/kg/injection, schedule: Q01DX009 (ip), vehicle: Klucel (hydroxypropylcellulose) (HPC)) read?
A: 170 % of control and 179 % of control

Q: And the T/C (dose: 66.0 mg/kg/injection, schedule: Q01DX009 (ip), vehicle: Klucel (hydroxypropylcellulose) (HPC))?
A: 207 % of control and 225 % of control

Q: What about the T/C (dose: 75.0 mg/kg/injection, schedule: Q01DX001 (ip), vehicle: Klucel (hydroxypropylcellulose) (HPC)) of the same compound?
A: 121 % of control

Q: And the T/C (dose: 75.0 mg/kg/injection, schedule: Q04DX003 (ip), vehicle: Klucel (hydroxypropylcellulose) (HPC))?
A: 154 % of control

Q: What about the T/C (dose: 88.0 mg/kg/injection, schedule: Q01DX001 (ip), vehicle: Klucel (hydroxypropylcellulose) (HPC)) of the same compound?
A: 119 % of control

Q: And the T/C (dose: 100.0 mg/kg/injection, schedule: Q01DX009 (ip), vehicle: Klucel (hydroxypropylcellulose) (HPC))?
A: 167 % of control and 184 % of control

Q: And the T/C (dose: 100.0 mg/kg/injection, schedule: Q04DX003 (ip), vehicle: Klucel (hydroxypropylcellulose) (HPC))?
A: 162 % of control

Q: And the T/C (dose: 133.0 mg/kg/injection, schedule: Q04DX002 (ip), vehicle: Klucel (hydroxypropylcellulose) (HPC))?
A: 167 % of control

Q: What about the T/C (dose: 150.0 mg/kg/injection, schedule: Q04DX002 (ip), vehicle: Klucel (hydroxypropylcellulose) (HPC)) of the same compound?
A: 166 % of control

Q: And the T/C (dose: 150.0 mg/kg/injection, schedule: Q04DX003 (ip), vehicle: Klucel (hydroxypropylcellulose) (HPC))?
A: 172 % of control and 223 % of control

Q: What about the T/C (dose: 200.0 mg/kg/injection, schedule: Q04DX002 (ip), vehicle: Klucel (hydroxypropylcellulose) (HPC)) of the same compound?
A: 223 % of control

Q: And the T/C (dose: 225.0 mg/kg/injection, schedule: Q04DX003 (ip), vehicle: Klucel (hydroxypropylcellulose) (HPC))?
A: 301 % of control

Q: What about the T/C (dose: 300.0 mg/kg/injection, schedule: Q01DX001 (ip), vehicle: Klucel (hydroxypropylcellulose) (HPC)) of the same compound?
A: 171 % of control and 201 % of control

Q: And the T/C (dose: 300.0 mg/kg/injection, schedule: Q04DX002 (ip), vehicle: Klucel (hydroxypropylcellulose) (HPC))?
A: 212 % of control and 293 % of control

Q: What about the T/C (dose: 300.0 mg/kg/injection, schedule: Q04DX003 (ip), vehicle: Klucel (hydroxypropylcellulose) (HPC)) of the same compound?
A: 118 % of control

Q: What about the T/C (dose: 450.0 mg/kg/injection, schedule: Q04DX002 (ip), vehicle: Klucel (hydroxypropylcellulose) (HPC)) of the same compound?
A: 225 % of control

Q: Which results are given for O=C(Nc1ccc(S(=O)(=O)F)cc1)c1ccc([N+](=O)[O-])cc1?
A: T/C (dose: 100.0 mg/kg/injection, schedule: Q01DX001 (ip), vehicle: saline): 105 % of control; T/C (dose: 200.0 mg/kg/injection, schedule: Q01DX001 (ip), vehicle: saline): 100 % of control; T/C (dose: 400.0 mg/kg/injection, schedule: Q01DX001 (ip), vehicle: saline): 100 % of control

Q: Which results are given for CC[N+](C)(CC)CCNC(=O)C(c1ccccc1)c1ccccc1?
A: T/C [1]: 104 % of control; T/C (dose: 50.0 mg/kg/injection, schedule: Q01DX009 (ip), vehicle: saline): 102 % of control; T/C (dose: 100.0 mg/kg/injection, schedule: Q01DX009 (ip), vehicle: saline): 95 % of control

Q: Which results are given for CSc1nc(=O)[nH]nc1Sc1ccccc1?
A: T/C [2]: 102 % of control; T/C [3]: 101 % of control
